Data as given in publication PMC9030947, “Identification of Novel Natural Product Inhibitors against Matrix Metalloproteinase 9 Using Quantum Mechanical Fragment Molecular Orbital-Based Virtual Screening Methods” (International Journal of Molecular Sciences, 2022).

Target: T1, MMP-9 (Homo sapiens, UniProt P14780)
T1 construct: gene MMP9; Purified recombinant human MMP-9 protein with a His-tag (catalog number 10327-H08H)
Assay: SPR (Biacore […], MMP-9 immobilized by amine coupling)
Assay type: binding

T1 sequence (P14780 107-707): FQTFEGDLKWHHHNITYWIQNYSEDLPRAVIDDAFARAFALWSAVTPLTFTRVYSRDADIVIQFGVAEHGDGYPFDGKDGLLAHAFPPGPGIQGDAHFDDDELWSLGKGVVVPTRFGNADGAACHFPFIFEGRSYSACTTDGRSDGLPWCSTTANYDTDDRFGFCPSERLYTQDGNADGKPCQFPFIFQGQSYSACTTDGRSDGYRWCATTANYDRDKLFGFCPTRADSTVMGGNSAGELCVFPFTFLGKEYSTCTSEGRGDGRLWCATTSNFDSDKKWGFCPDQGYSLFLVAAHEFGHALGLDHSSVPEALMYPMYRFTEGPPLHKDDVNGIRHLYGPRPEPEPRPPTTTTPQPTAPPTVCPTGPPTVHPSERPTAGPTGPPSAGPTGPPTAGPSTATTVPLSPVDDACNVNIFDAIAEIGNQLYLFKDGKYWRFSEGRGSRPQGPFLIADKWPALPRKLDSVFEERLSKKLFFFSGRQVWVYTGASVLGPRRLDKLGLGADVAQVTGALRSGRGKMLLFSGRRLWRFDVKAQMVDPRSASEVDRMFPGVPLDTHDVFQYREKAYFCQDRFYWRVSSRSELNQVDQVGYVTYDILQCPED

`COc1cc2c(cc1O)-c1c(OC)c(O)cc3c1[C@H](C2)NCC3` [compound 9, laetanine] was tested. Which Kd did it give?
Its Kd is 21.6 µM.

For `COc1cc(O)c2c(=O)cc(-c3ccc(O)cc3)oc2c1` [compound 10, genkwanin], which Kd is on record?
Its Kd is 0.614 µM.
